By AC50 is commonly meant the concentration at which the activity in the assay is half-maximal. Usually CC50 stands for the concentration that lowers cell viability or growth by half. In general, EC50 refers to the concentration giving half of the maximal effect.

Molecules are shown by their SMILES. Active and inactive are the calls of the source.

In one test the test system is INS1. The test is described as follows: INS-1E survival protection against cytokine death – cell-based, luminescence, retest, dose response (AID 449756).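 Further: cell death triggered by IL-1 beta plus TNF-alpha plus IFN-gamma mixture; protective hits raise ATP signal compared with cytokine alone wells.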 Conditions: Rattus norvegicus. Format: functional.
A short description of test [1]: Intein inhibitors as potential Tuberculosis drugs, a cytotoxicity screen. [Related pubchem assays (depositor defined):AID2221, AID2223, AID434968, AID435010, AID449749, AID449750, AID489010]. In kind it is functional.
Test [2] deals with T1, Replicative DNA helicase DnaB (Mycobacterium tuberculosis, UniProt P9WMR3).
T1 sequence (P9WMR3 whole entry): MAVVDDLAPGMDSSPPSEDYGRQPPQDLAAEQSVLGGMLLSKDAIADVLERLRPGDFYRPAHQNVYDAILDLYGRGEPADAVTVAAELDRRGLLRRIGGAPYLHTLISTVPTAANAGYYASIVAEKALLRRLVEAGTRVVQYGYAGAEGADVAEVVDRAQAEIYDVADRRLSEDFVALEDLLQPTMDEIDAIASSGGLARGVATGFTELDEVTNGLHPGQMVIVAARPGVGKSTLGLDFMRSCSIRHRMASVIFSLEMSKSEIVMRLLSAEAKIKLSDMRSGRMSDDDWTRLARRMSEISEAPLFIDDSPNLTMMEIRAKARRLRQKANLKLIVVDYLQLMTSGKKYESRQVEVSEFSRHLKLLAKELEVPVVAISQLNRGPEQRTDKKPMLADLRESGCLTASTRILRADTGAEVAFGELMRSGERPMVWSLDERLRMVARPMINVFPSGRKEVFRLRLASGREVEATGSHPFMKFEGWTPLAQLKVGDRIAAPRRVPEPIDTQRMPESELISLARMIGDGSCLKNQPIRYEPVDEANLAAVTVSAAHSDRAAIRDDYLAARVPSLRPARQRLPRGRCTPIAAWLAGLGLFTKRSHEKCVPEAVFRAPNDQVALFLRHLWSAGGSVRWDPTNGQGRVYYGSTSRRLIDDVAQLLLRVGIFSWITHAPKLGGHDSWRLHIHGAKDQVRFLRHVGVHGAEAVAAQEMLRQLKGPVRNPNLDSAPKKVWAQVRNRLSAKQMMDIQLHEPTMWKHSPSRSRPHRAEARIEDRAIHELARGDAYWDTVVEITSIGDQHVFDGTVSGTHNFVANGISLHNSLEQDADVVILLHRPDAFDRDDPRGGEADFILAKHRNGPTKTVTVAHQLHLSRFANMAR
The test is described as follows: DnaB intein splicing inhibitors, dose response, biochemical, cell-free fluorescence (AID 449749). In kind it is functional.

The target of another test is T2, Protein RecA (Mycobacterium tuberculosis, UniProt P9WHJ3).
T2 sequence (P9WHJ3 whole entry): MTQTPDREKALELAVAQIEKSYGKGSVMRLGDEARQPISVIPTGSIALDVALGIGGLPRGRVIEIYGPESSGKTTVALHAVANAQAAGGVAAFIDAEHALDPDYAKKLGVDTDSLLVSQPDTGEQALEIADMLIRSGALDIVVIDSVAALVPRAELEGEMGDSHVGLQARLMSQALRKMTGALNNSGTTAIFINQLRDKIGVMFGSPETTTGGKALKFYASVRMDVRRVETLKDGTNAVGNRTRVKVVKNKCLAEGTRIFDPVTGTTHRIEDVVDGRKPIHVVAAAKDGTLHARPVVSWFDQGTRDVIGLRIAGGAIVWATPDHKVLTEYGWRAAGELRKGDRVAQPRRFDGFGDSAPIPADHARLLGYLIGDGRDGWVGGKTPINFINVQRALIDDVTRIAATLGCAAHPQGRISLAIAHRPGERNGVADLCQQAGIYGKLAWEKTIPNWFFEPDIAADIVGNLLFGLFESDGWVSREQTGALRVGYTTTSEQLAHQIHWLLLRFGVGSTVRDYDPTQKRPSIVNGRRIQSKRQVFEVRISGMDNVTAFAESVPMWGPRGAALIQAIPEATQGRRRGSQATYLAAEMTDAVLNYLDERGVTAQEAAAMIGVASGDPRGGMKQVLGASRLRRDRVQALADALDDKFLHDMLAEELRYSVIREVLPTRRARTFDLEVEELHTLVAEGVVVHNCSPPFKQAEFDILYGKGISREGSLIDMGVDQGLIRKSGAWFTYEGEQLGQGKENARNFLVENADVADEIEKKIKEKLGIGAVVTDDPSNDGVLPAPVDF
The test is described as follows: Fluorescence Cell-Free Homogeneous Dose Retest to Identify Inhibitors of RecA-Intein Splicing Activity. [Related pubchem assays (depositor defined):AID2097, AID2223, AID489010, AID492950]. Format: functional.

Test [3] has as its target T3, Histone-lysine N-methyltransferase NSD2 (Homo sapiens, UniProt O96028).
T3 sequence (O96028 whole entry): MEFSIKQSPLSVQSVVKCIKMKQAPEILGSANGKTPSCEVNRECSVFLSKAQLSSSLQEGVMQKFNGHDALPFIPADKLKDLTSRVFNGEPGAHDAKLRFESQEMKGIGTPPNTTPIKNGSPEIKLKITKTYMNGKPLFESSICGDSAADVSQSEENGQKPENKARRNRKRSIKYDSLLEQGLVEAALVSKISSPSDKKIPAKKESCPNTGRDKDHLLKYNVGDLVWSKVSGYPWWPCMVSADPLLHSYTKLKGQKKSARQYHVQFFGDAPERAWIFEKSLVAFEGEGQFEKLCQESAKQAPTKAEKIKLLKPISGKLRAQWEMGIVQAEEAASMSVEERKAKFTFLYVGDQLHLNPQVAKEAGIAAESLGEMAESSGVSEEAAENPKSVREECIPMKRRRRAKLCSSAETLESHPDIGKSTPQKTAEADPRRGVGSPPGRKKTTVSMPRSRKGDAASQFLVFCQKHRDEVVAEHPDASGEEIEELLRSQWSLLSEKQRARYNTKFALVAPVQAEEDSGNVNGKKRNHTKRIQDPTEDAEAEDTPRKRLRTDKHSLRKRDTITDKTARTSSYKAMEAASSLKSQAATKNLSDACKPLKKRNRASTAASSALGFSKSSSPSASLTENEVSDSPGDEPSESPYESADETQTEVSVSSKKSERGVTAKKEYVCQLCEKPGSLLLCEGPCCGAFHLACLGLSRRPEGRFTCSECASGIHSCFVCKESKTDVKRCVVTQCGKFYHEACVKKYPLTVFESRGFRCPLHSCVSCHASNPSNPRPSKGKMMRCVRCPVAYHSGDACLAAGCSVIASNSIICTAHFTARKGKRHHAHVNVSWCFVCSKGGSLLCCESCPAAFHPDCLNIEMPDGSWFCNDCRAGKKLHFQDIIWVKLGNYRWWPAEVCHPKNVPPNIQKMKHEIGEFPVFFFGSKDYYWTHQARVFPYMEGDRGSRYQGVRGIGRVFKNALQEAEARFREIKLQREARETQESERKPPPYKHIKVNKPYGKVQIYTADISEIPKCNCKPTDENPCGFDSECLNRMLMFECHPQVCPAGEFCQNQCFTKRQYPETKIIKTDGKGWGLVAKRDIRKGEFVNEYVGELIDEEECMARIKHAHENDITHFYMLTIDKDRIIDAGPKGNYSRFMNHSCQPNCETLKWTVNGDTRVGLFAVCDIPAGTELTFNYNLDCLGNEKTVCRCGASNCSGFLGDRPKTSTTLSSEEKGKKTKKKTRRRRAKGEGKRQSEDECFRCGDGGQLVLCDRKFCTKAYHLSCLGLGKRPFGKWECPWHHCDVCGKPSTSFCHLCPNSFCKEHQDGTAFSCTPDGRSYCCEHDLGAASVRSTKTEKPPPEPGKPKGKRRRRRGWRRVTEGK
In kind it is biochemical.

The target of test [4] is T4, Heat shock factor protein 1 (Mus musculus, UniProt P38532).
T4 sequence (P38532 whole entry): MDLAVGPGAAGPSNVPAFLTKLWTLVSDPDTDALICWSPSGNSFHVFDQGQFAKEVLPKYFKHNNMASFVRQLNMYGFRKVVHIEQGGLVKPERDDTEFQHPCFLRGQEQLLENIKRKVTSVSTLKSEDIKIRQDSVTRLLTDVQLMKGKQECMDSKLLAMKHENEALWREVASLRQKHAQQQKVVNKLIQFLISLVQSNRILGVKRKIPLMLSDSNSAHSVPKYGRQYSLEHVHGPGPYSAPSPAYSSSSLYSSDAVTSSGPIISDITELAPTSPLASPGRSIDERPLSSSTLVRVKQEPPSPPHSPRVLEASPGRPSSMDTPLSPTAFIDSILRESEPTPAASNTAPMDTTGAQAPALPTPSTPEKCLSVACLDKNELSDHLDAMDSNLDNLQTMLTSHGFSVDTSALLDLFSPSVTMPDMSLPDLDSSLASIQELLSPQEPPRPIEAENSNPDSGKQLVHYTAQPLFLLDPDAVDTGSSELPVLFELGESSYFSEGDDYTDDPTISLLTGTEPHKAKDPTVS
As to the kind of experiment: enhancement of HSF1-driven luciferase signal – cell-based, NIH3T3, luminescence, dose retest, confirmation (AID 435004).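 Further: stress induced by proteasome inhibitor MG132 added 30 min after compound; luciferase reporter driven by HSF1 response element in NIH3T3 cells; actives raise luminescence as potentiators of the MG132 stress response.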 Format: functional.

A short description of test [5]: NIH-3T3 fibroblast cytotoxicity, dose response, cytotoxicity control, cell-based, fluorescence, Alamar Blue, secondary assay (AID 2327).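 Further: NIH-3T3 mouse fibroblasts cultured with fluconazole at 8 µg/mL.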 Format: functional. On the technique in general: The colour change of resazurin is a common sign of viable cells or microbes.
The target of a further test is Hexokinase-1 (Homo sapiens, UniProt P19367). As to the kind of experiment: HK1 enzyme activation by HKDC1 hits – biochemical, selectivity assay for HKDC1 activator project, dose response (AID 504762). In kind it is functional.
Test [6] concerns the target T5, Probable nicotinate-nucleotide adenylyltransferase (Staphylococcus aureus (strain N315), UniProt P65502). In kind it is functional, Staphylococcus aureus subsp. aureus N315.
Test [7] is described as follows: inhibition of Env-driven cell fusion – HIV entry, plate reader, dry powder, dose response (AID 687023). Format: functional, cell-based.
For test [8], the system named is Streptococcus sp. 'group A'. As to the kind of experiment: Streptococcus pyogenes SK(-)GAS viability under kanamycin – luminescence, BacTiterGlo, confirmation, counter-screen for streptokinase expression inhibitor project, dose response (AID 1900). In kind it is functional, organism-based. (In general: Counterscreens check selectivity or assay interference.)
The nature of test [9]: HIV-1 AD8 envelope cell-cell fusion blockers – cherry-pick, dose response (AID 652062).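 Further: luciferase signal from cell-cell fusion driven by HIV-1 clade B AD8 Env; potency is for inhibitors of fusion seen as a drop in luminescence.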 Format: functional, cell-based.
The target in a further test is T6, Hexokinase HKDC1 (Homo sapiens, UniProt Q2TB90).
T6 sequence (Q2TB90 whole entry): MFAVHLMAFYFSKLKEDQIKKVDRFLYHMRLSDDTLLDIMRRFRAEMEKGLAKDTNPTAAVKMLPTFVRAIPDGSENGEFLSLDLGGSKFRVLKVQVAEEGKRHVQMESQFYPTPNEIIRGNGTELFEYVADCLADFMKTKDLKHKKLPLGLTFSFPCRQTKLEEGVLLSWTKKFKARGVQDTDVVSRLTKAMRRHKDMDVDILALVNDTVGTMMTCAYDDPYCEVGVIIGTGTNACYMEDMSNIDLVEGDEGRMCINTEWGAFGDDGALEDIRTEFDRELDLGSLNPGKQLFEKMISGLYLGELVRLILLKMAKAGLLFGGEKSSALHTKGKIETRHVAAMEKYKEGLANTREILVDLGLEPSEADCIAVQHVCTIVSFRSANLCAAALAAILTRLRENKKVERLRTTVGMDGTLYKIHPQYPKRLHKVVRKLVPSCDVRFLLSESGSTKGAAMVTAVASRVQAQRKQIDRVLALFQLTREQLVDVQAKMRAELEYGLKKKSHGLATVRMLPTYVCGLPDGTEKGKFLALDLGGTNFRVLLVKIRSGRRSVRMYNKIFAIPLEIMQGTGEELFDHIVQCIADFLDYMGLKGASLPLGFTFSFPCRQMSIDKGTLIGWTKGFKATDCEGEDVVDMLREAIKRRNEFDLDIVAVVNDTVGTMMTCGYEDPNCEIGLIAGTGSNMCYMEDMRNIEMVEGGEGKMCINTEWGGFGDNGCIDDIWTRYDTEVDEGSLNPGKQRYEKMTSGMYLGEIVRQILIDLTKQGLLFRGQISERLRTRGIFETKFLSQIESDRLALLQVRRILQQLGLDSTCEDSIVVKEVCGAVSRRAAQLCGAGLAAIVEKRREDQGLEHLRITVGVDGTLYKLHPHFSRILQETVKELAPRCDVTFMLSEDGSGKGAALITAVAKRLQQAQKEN
The test is described as follows: activation of HKDC1 glucose phosphorylation – biochemical, W721R variant, dose response (AID 504730). Format: functional.

A short description of test [10]: blockers of HIV-1 ZM109 envelope-driven cell-cell fusion – HeLa effector, CEM target cells, luciferase, cherry-pick, dose response (AID 652058).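 Further: luciferase signal from HIV-1 Env mediated cell-cell fusion of effector and target cells.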 In kind it is functional, cell-based.
Test [11] concerns the target T5, Probable nicotinate-nucleotide adenylyltransferase. In kind it is functional, Staphylococcus aureus subsp. aureus N315. Conditions: read-out: IC50_Mean.
The nature of test [12]: blockers of HIV-1 envelope-mediated cell-cell fusion – cherry-pick, dose response (AID 652057). In kind it is functional, cell-based.
A short description of test [13]: viability loss in CEM21 cells – cell-based, plate reader, dry powder, cytotoxicity control, dose response (AID 687026). In kind it is functional.
Test [14] can be described thus: fluconazole-exposed Candida albicans growth modulators – fluorescence, retest, confirmation (AID 2467). Format: functional, cell-based.
Another test has as its system Streptococcus. The test is described as follows: GAS UMAA2166 growth inhibition – luminescence, BacTiterGlo, counter-screen for streptokinase expression inhibitor project, dose response (AID 1915).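 Further: potency for reduction of bacterial viability or growth.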 In kind it is functional, organism-based.
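Wherever CC50 is given: cells exposed to compound for 72 hours before luminescence readout.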
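Wherever IC50 Mean is given: confirmatory dose-response retesting of NadD inhibitor hits first found in an ultra-high-throughput screen.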

T5 sequence (P65502 whole entry, the tested form may be a part): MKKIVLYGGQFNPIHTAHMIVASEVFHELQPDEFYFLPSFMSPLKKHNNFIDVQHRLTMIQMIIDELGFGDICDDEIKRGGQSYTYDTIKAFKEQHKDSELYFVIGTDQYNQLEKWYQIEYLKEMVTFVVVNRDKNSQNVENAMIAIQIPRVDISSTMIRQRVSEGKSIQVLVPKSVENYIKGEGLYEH
Chain of Hexokinase-1 (P19367 whole entry): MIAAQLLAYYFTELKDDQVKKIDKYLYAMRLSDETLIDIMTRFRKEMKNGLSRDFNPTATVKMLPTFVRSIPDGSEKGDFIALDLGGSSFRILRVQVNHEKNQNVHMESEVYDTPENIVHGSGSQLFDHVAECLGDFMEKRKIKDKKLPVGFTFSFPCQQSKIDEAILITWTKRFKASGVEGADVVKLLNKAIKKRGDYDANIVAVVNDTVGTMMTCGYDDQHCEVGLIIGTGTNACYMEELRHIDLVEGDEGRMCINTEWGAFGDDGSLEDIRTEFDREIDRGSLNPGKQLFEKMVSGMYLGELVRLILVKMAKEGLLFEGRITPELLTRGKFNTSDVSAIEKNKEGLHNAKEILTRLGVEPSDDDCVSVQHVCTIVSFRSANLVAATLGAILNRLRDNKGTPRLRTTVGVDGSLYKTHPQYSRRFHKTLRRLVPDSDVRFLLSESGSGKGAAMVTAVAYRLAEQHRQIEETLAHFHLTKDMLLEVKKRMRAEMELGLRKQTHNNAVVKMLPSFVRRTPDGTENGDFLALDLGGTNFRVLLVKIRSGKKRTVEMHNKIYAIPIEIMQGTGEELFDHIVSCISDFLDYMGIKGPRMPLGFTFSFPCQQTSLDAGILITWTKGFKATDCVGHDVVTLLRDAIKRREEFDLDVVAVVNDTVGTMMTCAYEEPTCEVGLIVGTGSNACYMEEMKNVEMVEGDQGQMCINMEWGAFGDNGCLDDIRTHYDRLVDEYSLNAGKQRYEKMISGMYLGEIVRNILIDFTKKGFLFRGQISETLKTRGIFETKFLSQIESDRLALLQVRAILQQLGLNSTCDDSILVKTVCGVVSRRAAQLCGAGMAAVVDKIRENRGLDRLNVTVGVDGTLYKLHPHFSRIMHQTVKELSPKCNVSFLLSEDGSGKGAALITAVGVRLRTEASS

As for `CN(C1=C(NC(=O)c2ccccc2)C(=O)c2ccccc2C1=O)C1CCS(=O)(=O)C1` (centres undefined), the values for the AC50 (in the test with INS1; in test [2]; in [3]) were 3 µM (active), 1.7 µM (active) and 4.69 µM (active), respectively. Moreover, in test [1], the CC50 is 19.2 µM (active). The values for the EC50 (on Protein RecA; in test [4]) were 0.108 µM (active) and 30.9 µM (active), respectively.

`COc1ccc(-c2cc(C(=O)NNC(=S)NC(=O)c3c(-c4ccccc4)noc3C)[nH]n2)cc1`: the half-maximal effective concentration (EC50) in test [5] is 53.9 µM (active); at Hexokinase-1, > 80 µM (inactive); in test [8], 0.263 µM (active); at Hexokinase HKDC1, 3.62 µM (active); in test [14], > 38 µM (not active); with Streptococcus it was 4.58 µM (active). Also, the IC50 in [6] is 6.51 µM (active); in test [11], 26.1 µM (active). Moreover, the AC50 in [7] was 2.1 µM (active); in test [9], 4.51 µM (active); in [10], 2.61 µM (active); in test [12] it was 12 µM (active); in test [13], > 70 µM (inactive).

(Values after ChEMBL document CHEMBL1201862, “PubChem BioAssay data set” (2004).)
